Measurements: patent publication US11883398B2, “Dipeptidylpeptidase 4 inhibition enhances lymphocyte trafficking, improving both naturally occurring tumor immunity and immunotherapy” (INSTITUT PASTEUR, priority 2015, dated 2024)

How the values were obtained:
mCXCL10 = assay: Chemokine quantification in B16F10 tumor homogenates (ELISA/Luminex); type: in vivo, mouse
Experimental: Soluble extracts were collected after centrifugation of tumor homogenates.
For detection of mCXCL10(1-77), MAXISORP PLATES® (Nunc) were coated with 4 μg/ml of α-mCXCL10 capturing antibody (MAB466, R&D) in PBS and incubated over night at 4° C. Plates were washed twice with 300 μL of PBS. […] Tumor and plasma samples were diluted in BSA 1% and incubated for 2h, at room temperature.

B16F10 tumors = assay: Histology of B16F10 tumors (CD31, CD3, H&E); type: in vivo, mouse; conditions: untreated vs sitagliptin-treated mice
Experimental: B16F10 tumors were dissected and fixed in JB fixative (zinc acetate 0.5%, zinc chloride 0.05%, and calcium acetate 0.05% in Tris buffer, pH 7) for 48 hours, prior to being embedded in low-melting point paraffin (Poly Ethylene Glycol Distearate; Sigma, USA). 5 μm thick paraffin sections were deparafinized in absolute ethanol, air dried, and routinely stained with hematoxylin-eosin or used for immunolabelling. For immunohistochemistry, the following primary antibodies were used: anti-CD3 (rabbit α-human, clone A0452, DAKO, Carpinteria, CA) and anti-CD31 (rat a-mouse, clone 1/75e, BD Pharmingen, Franklin Lake, NJ, USA). CD31 immunolabelled sections were digitalized using a Zeiss Axio Scan Z.1 at ×20. For histomorphometry of blood vessels, CD31 positive profiles were manually delineated on digitalized images, using the “area” tool of the Zen software (Zeiss) at a magnification of 30%. The whole tumor surface was also delineated in the same way at a magnification of 2%. Mean number of blood vessels per mm2 and mean vessel area were then calculated for each group of mice.

CXCR3-expressing T cells = assay: Model of trafficking into the peritoneal cavity; type: in vivo, mouse
Experimental: WT and Dpp4^−/− mice were intraperitoneally injected with PBS or 1 μg of mCXCL10, mCXCL9 or mCCL5 (all from Peprotech). At the indicated time points, mice were sacrificed and peritoneal cells were collected in 10 mL of PBS. For thioglycollate induced peritonitis mice were intraperitoneally injected with thioglycollate 3% weight/volume, 24 hours before collection of peritoneal cells.
Fluorochrome-conjugated anti-mouse CD3 (clone145-2C11), CD8 (clone 53-6.7), CD4 (clone RM4-5), NK1.1 (clone PK136), CD49b (clone DX5), CD25 (clone PC61), B220 (clone RA3-6B2), Ly6G (clone 1A8), Ly6C (clone AL-21), CD11 b (clone M1/70) Siglec-F (clone E50-2440), MHCII IA-IE (clone M5/114.15.2), CD45.2 (clones 56-0454-82 and 109830), Thy-1.1 (clone HIS51), Thy-1.2 (clone 53-2.1), DPP4 (clone H194-112) and CXCR3 (clone CXCR3-173) were from eBiosciences and BD Biosciences. Fluorochrome conjugated anti-F4/80 (clone CI:A3-1) was from AbDserotec. For exclusion of dead cells, Live/Dead fixable Aqua reagent (Invitrogen) was used. For all staining protocols, cell suspensions were incubated with mouse CD16/CD32 Fc Blocking antibodies (BD Biosciences) prior to antibody. For analysis of peritoneal cavity infiltrates, cells were washed and incubated with a cocktail of fluorochrome-conjugated antibodies. For analysis of tumor infiltrates, B16F10 tumors were collected at the indicated time points and digested in PBS supplemented with 2.7 mg/ml of Collagenase (Roche) and 23U/ml of Deoxyribonuclease I (Invitrogen) for 30 min, 37° C. Digestion was terminated by adding PBS supplemented with 2% FCS and 5 mM EDTA (Gibco). Tumor cell suspensions were obtained after filtration over a 70 μm cell strainer. For determination of cell numbers, the […] COUNTING BEADS reagent (Invitrogen) was used. Flow cytometry was performed using a BD LSRFORTESSA or a BD CANTO cytometer, with DIVA software. Computer analysis was done with FLOWJO (Treestar).

MEK1 induced skin tumors = conditions: Arwert and colleagues; cited from earlier work
DPP8 = DPP8 (Homo sapiens, UniProt Q6V1X1); conditions: Verspohl 2012; Huan et al. 2015; cited from earlier work
Chain of DPP8 (Q6V1X1 whole entry, species assumed): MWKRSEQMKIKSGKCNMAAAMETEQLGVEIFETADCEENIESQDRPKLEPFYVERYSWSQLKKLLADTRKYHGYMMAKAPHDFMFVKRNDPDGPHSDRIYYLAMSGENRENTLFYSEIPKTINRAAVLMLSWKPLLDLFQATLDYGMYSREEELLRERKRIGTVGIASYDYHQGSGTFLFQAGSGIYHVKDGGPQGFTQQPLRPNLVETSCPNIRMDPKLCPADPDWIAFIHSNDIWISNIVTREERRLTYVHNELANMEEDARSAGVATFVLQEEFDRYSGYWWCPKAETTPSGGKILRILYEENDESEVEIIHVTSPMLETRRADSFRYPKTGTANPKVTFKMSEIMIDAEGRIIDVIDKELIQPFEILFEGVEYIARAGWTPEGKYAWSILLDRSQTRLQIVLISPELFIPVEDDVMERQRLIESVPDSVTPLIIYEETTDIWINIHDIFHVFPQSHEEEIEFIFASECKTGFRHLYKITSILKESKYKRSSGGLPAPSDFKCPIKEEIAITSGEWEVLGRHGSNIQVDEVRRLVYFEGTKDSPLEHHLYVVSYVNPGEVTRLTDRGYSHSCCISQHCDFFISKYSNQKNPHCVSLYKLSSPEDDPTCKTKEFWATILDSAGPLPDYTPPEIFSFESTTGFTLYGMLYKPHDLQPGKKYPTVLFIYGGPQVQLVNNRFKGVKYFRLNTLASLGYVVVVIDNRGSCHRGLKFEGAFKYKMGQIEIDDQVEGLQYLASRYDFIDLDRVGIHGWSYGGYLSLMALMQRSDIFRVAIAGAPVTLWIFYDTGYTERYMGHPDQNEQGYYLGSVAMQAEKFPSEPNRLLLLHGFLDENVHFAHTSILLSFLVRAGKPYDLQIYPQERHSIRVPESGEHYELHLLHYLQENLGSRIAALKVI

## N[C@@H](CC(=O)N1CCn2c(nnc2C(F)(F)F)C1)Cc1cc(F)c(F)cc1F [sitagliptin]
mCXCL10; B16F10 tumors, sitagliptin-treated vs control mice
  tumor associated mCXCL10 concentration: elevated concentrations
mCXCL10; after intra-tumoral CpG-A, sitagliptin vs control
  full-length mCXCL10(1-77) among total mCXCL10 in tumor: protected the full-length form of the molecule
mCXCL10; control vs sitagliptin treated animals
  intra-tumoral expression of mCCL2 and mCCL22 after CpG-A: no significant differences
B16F10 tumors
  number and diameter of tumor blood vessels (CD31 staining): no difference in the number, nor the diameter of blood vessels
CXCR3-expressing T cells; after intraperitoneal mCXCL10, control or sitagliptin-fed mice
  recruitment of polymorphonuclear cells into the peritoneal cavity: did not show differential recruitment
CXCR3-expressing T cells; after intraperitoneal mCXCL10, sitagliptin vs control
  CXCR3 expression on peripheral blood T cells: unaltered CXCR3 expression
CXCR3-expressing T cells; intraperitoneal mCXCL10, sitagliptin vs control chow
  mCXCL10-mediated infiltration of T cells into the peritoneal cavity: enhanced mCXCL10-mediated infiltration of T cells
CXCR3-expressing T cells; peritoneal cavity after mCXCL10 injection, sitagliptin vs control
  CXCR3 plasma membrane expression on migrating T cells: lower
MEK1 induced skin tumors
  malignant transformation: delays malignant transformation
DPP8
  effect on DPP8 activity: no effect
